Test results taken from patent publication US5349127A, “Expression of herbicide metabolizing cytochromes P450” (priority 1992, dated 1994).

What was measured:
[1] = Incubation buffer without cells, time 0 (Examples 5-9, 11, 12); type: in vitro ADME; conditions: no cells; substrate 10006; 0 h
Procedure: (§1) A 100 ml culture of S. griseolus ATCC 11796 in sporulation broth and a 50 ml culture of S. lividans transformed with pCAO400 in YEME broth were prepared and incubated for 24 hours as described. At that time, the S. griseolus culture was split into two 50 ml aliquots into two separate flasks and 25 ml of fresh sporulation broth was added to each and 9 mg of […] was added to one of these cultures to induce cytochrome P450SU1 expression. Fresh YEME broth (25 ml) was added to the S. lividans culture. After an additional 6 hours growth at 30° C., the cells in each culture were harvested as described above, washed twice with MOPS (50 mM, pH 7.2) and recentrifuged. The cell pellets were resuspended in four cell volumes of MOPS (50 mM, pH 7.2) containing 0.2% glucose and about 100 μg/ml of 10004. These cell suspensions were incubated at 30° C. with shaking and aliqouts were taken at 2 and 5.5 hours. The supernatant of each aliquot was analyzed by HPLC and the concentrations of the sulfonylurea compound 10004 and its metabolite 10005 were determined.
(§2) S. lividans transformed respectively with pCAO200SU1-FeS-B#9, pCAO200SU#112and pCAO200 were cultured for 36 hours in 400 ml of YEME broth at 30° C. S. griseolus ATCC 11796 was similarly cultured in 400 ml of sporulation broth. Six hours before harvesting the cells, 150 ml of fresh YEME broth was added to the S. lividans cells, and the S. griseolus cells were split into two 200 ml cultures with 100 ml of fresh sporulation broth added to each. 10001 (36 mg) was added to one of the two S. griseolus cultures to induce cytochrome P450SU1. The cells were prepared as described above in Example 5 and the concentrations of the sulfonylurea compound 10006 and its metabolites 10007, 10008 or 10009 were determined.
S. lividans transformed with pCAO200SU2-FeS-A#11 and S. lividans transformed with pCAO200 were cultured for 36 hours in 400 ml of YEME broth at 30° C. S. griseolus PH2001 (mutant without SU1) was cultured in 400 ml of sporulation broth at 30° C. Nine hours before harvesting the cells, the S. griseolus PH2001 culture was divided into two 200 ml cultures. Both received 100 ml of fresh sporulation broth and one received 36 mg of 10001 to induce cytochrome P450SU2. The cells were prepared as described above in Example 6 and the concentrations of the sulfonylurea compound 10001 and its metabolites 10002 and 10003 were determined.

[2] = tested on: S. griseolus ATCC 11796 induced with 10001; experiment: Sulfonylurea metabolism by washed cell suspension (Examples 5-9); type: in vitro ADME, Streptomyces griseolus; conditions: substrate 10006
Procedure: (§3) Herbicides and their metabolites are measured by HPLC as described by Romesser et al., BBRC 140: 650-659 (1986), herein incorporated by reference, except that 0.1% H3 PO4 is used in both solvents. Chromatographic identity and quantitation of the herbicides and their resulting metabolites is determined by comparing them chromatographically with authentic standard compounds. Identity of the resulting metabolites is also confirmed by UV spectroscopy.
as §1, §2

[3] = tested on: S. griseolus ATCC 11796 uninduced; experiment: as above; type: in vitro ADME, Streptomyces griseolus; conditions: substrate 10006
Procedure: as §3, §1, §2

[4] = tested on: S. lividans pCAO200SU1-FeS-B#9; experiment: Sulfonylurea metabolism by washed cell suspension (Examples 6-9); type: in vitro ADME, Streptomyces lividans
[5] = tested on: S. lividans pCAO200SU1#12; experiment: as above; type: in vitro ADME, Streptomyces lividans; conditions: substrate 10006
S. lividans pCAO200 [6] = experiment: as above; type: in vitro ADME, Streptomyces lividans; conditions: substrate 10006
S. lividans C37 [7] = experiment: Percent conversion of herbicides by cultures (Example 16); type: in vitro ADME, Streptomyces lividans; conditions: 3.0 mg herbicide in 25 ml broth; 24 hours
Procedure: (§4) Separate cultures (50 ml) inoculated with S. lividans C37, S. lividans transformed with pCAO200SU1-FeS-B#9, S. griseolus ATCC11796, S. griseolus PH2003 transformed with pIJ425, or S. ariseolus PH2003 transformed with pCS325 were cultured in sporulation broth for 18 hours at 30° C. with shaking. Each culture was then resuspended in 25 ml fresh sporulation broth and 3.0 mg herbicide added. In the case of cultures of S. griseolus ATCC11796, a second culture containing herbicide and 3.0 mg 10001 was also prepared. Each culture was reincubated for 24 hours, then an aliquot of the medium was withdrawn and analyzed by HPLC. The percent conversion of herbicide was determined.

[8] = tested on: S. lividans pCAO200SU1-FeS-B#9; experiment: as above; type: in vitro ADME, Streptomyces lividans
Procedure: as §4

[9] = tested on: S. griseolus ATCC 11796, 10001 added; experiment: as above; type: in vitro ADME, Streptomyces griseolus; conditions: 3.0 mg herbicide and 3.0 mg 10001 in 25 ml broth; 24 hours
Procedure: as §4

S. griseolus ATCC 11796 = experiment: as above; type: in vitro ADME, Streptomyces griseolus; conditions: 3.0 mg herbicide in 25 ml broth; 24 hours
Procedure: as §4

[10] = tested on: S. griseolus PH2003 pCS325; experiment: as above; type: in vitro ADME, Streptomyces griseolus; conditions: 3.0 mg herbicide in 25 ml broth; 24 hours
Procedure: as §4

[11] = tested on: S. griseolus PH2003 pIJ425; experiment: as above; type: in vitro ADME, Streptomyces griseolus; conditions: 3.0 mg herbicide in 25 ml broth; 24 hours
Procedure: as §4

S. griseolus ATCC11796 = experiment: Percent conversion of non-sulfonylurea herbicides (Example 29); type: in vitro ADME, Streptomyces griseolus; conditions: 3.0 mg herbicide in 25 ml broth; 18 hours
Procedure: (§5) This experiment was performed as in Example 17 with the following changes. Separate cultures (50 ml) inoculated with S. lividans C37, S. lividans transformed with pCAO200SU1-FeS-B#9, or S. griseolus ATCC11796 were cultured in sporulation broth for 18 hours at 30° C. with shaking. Each culture was then resuspended in 25 ml fresh sporulation broth and 3.0 mg herbicide added. Each culture was reincubated for 18 hours, then an aliquot of the medium was withdrawn and analyzed by HPLC. The percent conversion of herbicide was determined.

S. lividans C37 [12] = experiment: as above; type: in vitro ADME, Streptomyces lividans; conditions: 3.0 mg herbicide in 25 ml broth; 18 hours
Procedure: as §5

[13] = tested on: S. lividans pCAO200SU1-FeS-B#9; experiment: as above; type: in vitro ADME, Streptomyces lividans
Procedure: as §5

[14] = tested on: S. lividans transformed with pCAO400; experiment: Sulfonylurea metabolism by washed cell suspension (Example 5); type: in vitro ADME, Streptomyces lividans; conditions: substrate 10004 about 100 μg/ml
Procedure: as §3, §1

[15] = tested on: S. lividans pCAO200SU1#12; experiment: Sulfonylurea metabolism by washed cell suspension (Examples 6-9); type: in vitro ADME, Streptomyces lividans; conditions: substrate 10004
S. lividans pCAO200 [16] = experiment: as above; type: in vitro ADME, Streptomyces lividans; conditions: substrate 10004

## COC(=O)c1ccccc1S(=O)(=O)NC(=O)Nc1nc(C)nc(OC)n1 [compound 10006, N-[(4-methoxy-6-methyl-1,3,5-triazinyl)aminocarbonyl]-2-methoxycarbonylbenzenesulfonamide]
[1]
  concentration in supernatant: 362 µM
[2]; 2 h
  concentration in supernatant: 369 µM
[2]; 4 h
  concentration in supernatant: 357 µM
[2]; 6 h
  concentration in supernatant: 355 µM
[3]; 2 h
  concentration in supernatant: 404 µM
[3]; 4 h
  concentration in supernatant: 394 µM
[3]; 6 h
  concentration in supernatant: 405 µM
[4]; substrate 10006, 2 h
  concentration in supernatant: 326 µM
[4]; substrate 10006, 4 h
  concentration in supernatant: 267 µM
[4]; substrate 10006, 6 h
  concentration in supernatant: 232 µM
[5]; 2 h
  concentration in supernatant: 376 µM
[5]; 4 h
  concentration in supernatant: 384 µM
[5]; 6 h
  concentration in supernatant: 386 µM
S. lividans pCAO200 [6]; 2 h
  concentration in supernatant: 381 µM
S. lividans pCAO200 [6]; 4 h
  concentration in supernatant: 377 µM
S. lividans pCAO200 [6]; 6 h
  concentration in supernatant: 375 µM

## Cc1ccc(NC(=O)N(C)C)cc1Cl [compound 10019, 3-(3-chloro-p-tolyl)-1,1-dimethylurea]
S. lividans C37 [7]
  Percent Conversion: 0%
[8]; 3.0 mg herbicide in 25 ml broth, 24 hours
  Percent Conversion: 35%
[8]; summary of Table 13
  metabolism by bacteria containing constitutively expressed P450SU1: metabolized
[9]
  Percent Conversion: 80%
S. griseolus ATCC 11796
  Percent Conversion: 0%
[10]
  Percent Conversion: 9%
[11]
  Percent Conversion: 0%

## CCc1cnc(C2=NC(C)(C(C)C)C(=O)N2)c(C(=O)O)c1 (centres unmarked) [compound 10034]
S. griseolus ATCC11796
  Percent Conversion: 13%
S. lividans C37 [12]
  Percent Conversion: 10%
[13]; 3.0 mg herbicide in 25 ml broth, 18 hours
  Percent Conversion: 69%
[13]; summary of Table 29
  metabolism by bacteria containing constitutively expressed P450SU1: metabolized

## CCCCN1Cc2cccc(S(=O)(=O)NC(=O)Nc3nc(OC)cc(OC)n3)c2S1(=O)=O [compound 10004]
[14]; 2 h
  concentration in supernatant: 72 µM
[14]; 5.5 h
  concentration in supernatant: 0 µM
[4]; substrate 10004, 2 h
  concentration in supernatant: 2 µM
[4]; substrate 10004, 4 h
  concentration in supernatant: 1 µM
[4]; substrate 10004, 6 h
  concentration in supernatant: 2 µM
[15]; 2 h
  concentration in supernatant: 81 µM
[15]; 4 h
  concentration in supernatant: 29 µM
[15]; 6 h
  concentration in supernatant: 0 µM
S. lividans pCAO200 [16]; 2 h
  concentration in supernatant: 97 µM
S. lividans pCAO200 [16]; 4 h
  concentration in supernatant: 92 µM
S. lividans pCAO200 [16]; 6 h
  concentration in supernatant: 85 µM
